Test results: patent publication US20210369787A1, “ADIPOCYTE MEDIATED DELIVERY OF ANTICANCER THERAPEUTICS” (NORTH CAROLINA STATE UNIVERSITY, priority 2018, published 2021)

Key:
[1] = system: PD-L1; experiment: PD-L1 expression of B16F10 in transwell system, Western blot; type: cell-based, mouse
Protocol: (§1) For Western blot, flow cytometry, and adipokine profiling (R&D Systems catalog no. ARY013), 6 well transwell system was used with cancer cells cultured in the transwell insert and adipocytes in the bottom. Cells or medium were analyzed after co-culturing for 72 h. To determine the role of FABP4 during the crosstalk, 30 μM BMS309403 was added in the medium to block FABP4. Antibodies used for Western blot included β-actin (catalog no. sc-47778, Santa Cruz), FABP4 (catalog no. 701158, Thermo Fisher), PD-L1 (catalog no. ab205921, Abcam). PE channel was used to determine pDox fluorescence in adipocytes and cancer cells.

[2] = system: B16F10 cells; experiment: Transwell co-culture of loaded adipocytes with B16F10, MTT; type: cell-based, mouse
Protocol: Cytotoxicity of drug and fatty acid was determined by MTT assay in 96-well plate after 48 h. Tumor cell killing or promoting effect of drug or fatty acid loaded adipocytes was determined in a transwell system where adipocytes were seeded in the 24 well plate and tumor cells grew in the transwell insert. After culturing for 72 h, cell proliferation of cancer cells in the transwell insert was determined by MTT assay.
as §1

[3] = system: B16F10 cells; experiment: pDox uptake and transport from adipocytes to B16F10 in transwell, flow cytometry; type: cell-based, mouse
Protocol: as §1

[4] = system: FABP4; experiment: FABP4 amount in B16F10 cells after transwell co-culture, Western blot; type: cell-based, mouse
Protocol: as §1

[5] = target: FABP4 (Homo sapiens, UniProt P15090); experiment: Fluorescence polarization binding of Dox or pDox to FABP4
Sequence of FABP4 (Homo sapiens, UniProt P15090) (P15090 whole entry, species assumed): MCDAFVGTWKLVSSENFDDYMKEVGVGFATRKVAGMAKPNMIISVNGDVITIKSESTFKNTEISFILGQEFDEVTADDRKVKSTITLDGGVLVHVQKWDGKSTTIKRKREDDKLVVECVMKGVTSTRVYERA
Protocol: Fluorescence polarization was measured using QuantaMaster 40 UV/VIS Steady State Spectrofluorometer (Photon Technology International). The dissociation constant (Kd) was calculated for each by fitting the observed polarization ([mP]) to a general equation for two state binding as previously described.2

[6] = system: 3T3-L1 cell-differentiated adipocytes; experiment: Lipid accumulation in adipocytes, Oil Red O staining; type: cell-based; conditions: for lipid accumulation in adipocytes: added during 3T3-L1 differentiation, oil red staining
Protocol: Lipid accumulation in adipocytes was evaluated by Oil Red 0 staining and quantified by optical density measurement at 540 nm. Preadipocytes were cultured, differentiated, and drug encapsulated in 6-well transwell insert, and co-cultured with 5*10^5 pre-cultured B16F10 or fibroblasts in 6 well plate to determine drug release profiles, which was calculated according to drug amount remained in adipocytes. Concentration of free fatty acid in co-cultured medium was measured using Free Fatty Acid Quantitation Kit (Sigma-Aldrich, catalog no. MAK044). […] Then, 100 μL extraction solution (0.75 M HCl in isopropanol) was added and incubated at −20° C. overnight. The fluorescence of supernatant at 498(excitation)/591(emission) nm was measured after centrifugation at 20000 g for 15 min. The maintenance medium was changed three to four times for animal work.

Structure (SMILES)	effect on PD-L1 suppression by RA@adipocytes and CLA@adipocyte [1]	effect on cytotoxicity of pDox from adipocytes to B16F10 cells ([2]; BMS309403 added to transwell medium (30 μM))	effect on cell killing by pDox+RA@adipocytes ([2]; FABP4 inhibitor in transwell medium)	effect on uptake of pDox in adipocytes ([3]; during pDox absorption)	effect on RA@adipocyte-promoted pDox uptake ([3]; transwell co-culture)	effect on transportation of pDox from adipocytes to B16F10 cells ([3]; transwell, flow cytometry)	effect on adipocyte-induced rise of FABP4 in B16F10 cells [4]	specific binding to FABP4 [5]	lipid accumulation in adipocytes [6]	effect on inhibition of lipid droplet formation by Dox and pDox ([6]; RA added during differentiation)
CCc1c(-c2ccccc2)c(-c2ccccc2)nn1-c1ccccc1-c1cccc(OCC(=O)O)c1 [BMS309403]	partially reversed	partially reversed	partially reversed	did not affect	inhibited	partially inhibited	inhibit			
COc1cccc2c1C(=O)c1c(O)c3c(c(O)c1C2=O)C[C@@](O)(C(=O)CO)C[C@@H]3O[C@H]1C[C@H](N)[C@H](O)[C@H](C)O1 [Dox, doxorubicin]								almost no specific binding	significantly inhibited	
CCCCCC/C=C/C=C\CCCCCCCC(=O)O [RA, 9Z, 11E-conjugated linoleic acid]									enhance lipid accumulation	partially reversed
